Laboratory results: article PMC6199744, “Development of Chemical Proteomics for the Folateome and Analysis of the Kinetoplastid Folateome” (ACS Infectious Diseases, 2018)
Read-outs that look alike come from different tables or passages of the source.

Columns and labels:
Type in all cases: binding
[1] = biological target: T1, HeLa cell extract proteins (Homo sapiens, UniProt O60547)
T1 construct: endogenous in cells; host or cells: HeLa cell extract
T1 sequence (O60547 1-372): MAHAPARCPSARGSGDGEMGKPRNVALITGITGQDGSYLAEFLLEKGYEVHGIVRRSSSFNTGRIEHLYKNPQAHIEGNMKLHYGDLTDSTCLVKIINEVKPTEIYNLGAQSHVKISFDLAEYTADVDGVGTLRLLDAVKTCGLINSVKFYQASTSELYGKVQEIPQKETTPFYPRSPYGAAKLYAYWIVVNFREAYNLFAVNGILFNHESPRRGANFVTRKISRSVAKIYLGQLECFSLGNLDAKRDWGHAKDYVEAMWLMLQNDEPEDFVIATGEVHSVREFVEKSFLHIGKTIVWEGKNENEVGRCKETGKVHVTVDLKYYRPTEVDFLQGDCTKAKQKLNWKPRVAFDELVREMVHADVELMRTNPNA

[2] = biological target: T2, HeLa cell extract proteins (Homo sapiens, UniProt P53396)
T2 construct: endogenous in cells; host or cells: HeLa cell extract
T2 sequence (P53396 1-1101): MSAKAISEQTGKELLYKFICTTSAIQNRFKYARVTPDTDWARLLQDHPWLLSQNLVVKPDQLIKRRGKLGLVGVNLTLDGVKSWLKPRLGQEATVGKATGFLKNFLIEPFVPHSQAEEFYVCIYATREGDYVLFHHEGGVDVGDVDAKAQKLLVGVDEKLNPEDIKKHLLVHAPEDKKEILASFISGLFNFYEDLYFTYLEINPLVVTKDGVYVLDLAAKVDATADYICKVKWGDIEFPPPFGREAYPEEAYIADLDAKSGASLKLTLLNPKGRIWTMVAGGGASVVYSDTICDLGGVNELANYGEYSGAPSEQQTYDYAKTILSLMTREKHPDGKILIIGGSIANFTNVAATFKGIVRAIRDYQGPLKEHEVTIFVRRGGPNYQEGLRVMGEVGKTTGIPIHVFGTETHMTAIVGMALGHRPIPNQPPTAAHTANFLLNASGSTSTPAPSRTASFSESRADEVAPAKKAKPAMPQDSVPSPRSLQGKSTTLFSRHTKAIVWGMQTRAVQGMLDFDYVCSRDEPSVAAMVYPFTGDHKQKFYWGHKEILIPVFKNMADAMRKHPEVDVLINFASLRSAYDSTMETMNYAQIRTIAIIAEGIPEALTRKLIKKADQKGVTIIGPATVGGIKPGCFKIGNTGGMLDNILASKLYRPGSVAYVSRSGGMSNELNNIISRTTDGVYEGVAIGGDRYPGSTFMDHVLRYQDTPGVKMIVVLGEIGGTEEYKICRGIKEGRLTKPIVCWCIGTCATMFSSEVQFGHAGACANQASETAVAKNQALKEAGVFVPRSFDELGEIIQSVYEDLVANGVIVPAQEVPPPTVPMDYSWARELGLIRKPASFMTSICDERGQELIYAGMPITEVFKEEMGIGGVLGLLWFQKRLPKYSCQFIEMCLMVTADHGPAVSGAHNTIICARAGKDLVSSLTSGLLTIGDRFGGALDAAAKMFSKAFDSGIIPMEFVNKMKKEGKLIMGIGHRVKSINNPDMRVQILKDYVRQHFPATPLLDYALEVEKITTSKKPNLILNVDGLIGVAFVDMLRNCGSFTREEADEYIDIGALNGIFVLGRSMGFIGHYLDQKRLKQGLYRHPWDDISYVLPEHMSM

[3] = biological target: T3, HeLa cell extract proteins (Homo sapiens, UniProt Q8NCG7)
T3 construct: endogenous in cells; host or cells: HeLa cell extract
T3 sequence (Q8NCG7 1-672): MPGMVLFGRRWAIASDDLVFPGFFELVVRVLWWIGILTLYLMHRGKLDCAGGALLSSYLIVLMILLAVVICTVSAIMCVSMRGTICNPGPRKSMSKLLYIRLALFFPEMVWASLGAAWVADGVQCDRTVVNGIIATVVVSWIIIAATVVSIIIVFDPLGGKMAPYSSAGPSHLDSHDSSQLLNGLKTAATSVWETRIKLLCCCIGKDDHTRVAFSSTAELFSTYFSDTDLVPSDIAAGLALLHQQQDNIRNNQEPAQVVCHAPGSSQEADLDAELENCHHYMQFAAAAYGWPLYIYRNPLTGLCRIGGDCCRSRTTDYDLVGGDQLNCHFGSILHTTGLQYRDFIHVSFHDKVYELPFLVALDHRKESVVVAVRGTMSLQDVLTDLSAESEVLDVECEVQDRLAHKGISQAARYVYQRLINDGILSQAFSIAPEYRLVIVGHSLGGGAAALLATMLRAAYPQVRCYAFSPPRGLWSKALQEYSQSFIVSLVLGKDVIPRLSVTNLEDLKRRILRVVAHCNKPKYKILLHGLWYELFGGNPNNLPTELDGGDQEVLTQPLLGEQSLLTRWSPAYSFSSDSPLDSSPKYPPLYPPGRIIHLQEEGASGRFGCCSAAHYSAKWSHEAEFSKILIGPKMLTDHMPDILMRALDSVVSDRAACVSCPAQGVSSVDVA

| SMILES | fold changes relative to vehicle control ([1]; HeLa, captured protein GMDS) | fold changes relative to vehicle control ([2]; HeLa, protein ACLY) | fold changes relative to vehicle control ([3]; HeLa, protein DAGLB) | fold changes relative to vehicle control ([1]; HeLa, protein GMDS) | fold changes relative to vehicle control ([2]; protein ACLY, HeLa) | fold changes relative to vehicle control ([3]; captured protein DAGLB, HeLa) | also measured |
| --- | --- | --- | --- | --- | --- | --- | --- |
| Nc1nc2c(c(=O)[nH]1)N(C=O)C(CNc1ccc(C(=O)N[C@@H](CCC(=O)O)C(=O)O)cc1)CN2 (stereo partly drawn) [LEU, leucovorin] | 1 | 1.04 | 1.01 |  |  |  |  |
| Nc1nc2[nH]cc(CCc3ccc(C(=O)N[C@@H](CCC(=O)O)C(=O)O)cc3)c2c(=O)[nH]1 [PTX, pemetrexed] |  |  |  |  |  |  | fold changes relative to vehicle control [1]: 1; fold changes relative to vehicle control [2]: 1.1; fold changes relative to vehicle control [3]: 0.88 |
| CCCCCCOc1ccc(Cc2cnc(N)nc2N)cc1 [compound 1] |  |  |  | 1.06 | 1.25 | 1.02 |  |
| CCCCCCOc1cccc(Cc2cnc(N)nc2N)c1 [compound 2] |  |  |  | 1.21 | 1.99 | 1.07 |  |
| Nc1nc2cccc(-c3ccccc3)c2n1Cc1ccc(Cl)c(Cl)c1 [compound 3] |  |  |  | 1.25 | 1.2 | 0.97 |  |
| NCCOCCOCC(=O)Nc1nc2ncc(CNc3ccc(C(=O)NC(CCC(=O)O)C(=O)O)cc3)nc2c(=O)[nH]1 (stereo not drawn) [compound 6] | 0.98 | 1.19 | 1.07 |  |  |  |  |
| NCCCNc1ccc(C(=O)NC(CCC(=O)O)C(=O)O)cc1 (stereo not drawn) [compound 7] | 1.12 | 1.04 | 1.04 |  |  |  |  |
